How the values were obtained:
Format in all cases: functional
B16 [1] = test: Antitumor activity against mouse B16 cells allografted in ip dosed BDF mouse assessed as 25% increase in life span administered for 9 days
B16 [2] = test: Antitumor activity against mouse B16 cells allografted in BDF mouse assessed as increase in life span at 8 mg/kg, ip administered for 9 days relative to untreated control; conditions: route intraperitoneal
B16 [3] = test: Antitumor activity against mouse B16 cells allografted in BDF mouse assessed as increase in life span at 100 mg/kg, ip administered for 9 days relative to untreated control; conditions: route intraperitoneal
B16 [4] = test: Antitumor activity against mouse B16 cells allografted in BDF mouse assessed as increase in life span at 25 mg/kg, ip administered for 9 days relative to untreated control; conditions: route intraperitoneal
B16 [5] = test: Antitumor activity against mouse B16 cells allografted in BDF mouse assessed as increase in life span at 4 mg/kg, ip administered for 9 days relative to untreated control; conditions: route intraperitoneal

SMILES	log(1/C) (B16 [1])	T/C (B16 [2]) [%]	T/C (B16 [3]) [%]	T/C (B16 [4]) [%]	T/C (B16 [5]) [%]
O=C(O)CCCc1ccc(N(CCCl)CCCl)cc1 [CHLORAMBUCIL]	4.7	133	–	–	–
ClCCN(CCCl)c1ccc(/C=C/c2ccccc2)cc1	2.86	–	101	–	–
NC(=O)Nc1cc(NC(N)=O)cc(N(CCCl)CCCl)c1	3.69	–	–	108	–
NC(Cc1ccc(N(CCCl)CCCl)cc1)C(=O)O (stereo not drawn) [SARCOLYSIN]	6.18	–	–	–	236

From ChEMBL document CHEMBL3244115 (1979)
